Laboratory results: ChEMBL document CHEMBL1201862, “PubChem BioAssay data set” (2004)
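Cultured in 96-well plates, cells were exposed to test compound for 48 hours across five concentrations. Abbreviation: GI50, concentration required for 50% inhibition of growth.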 Calls of active or inactive are those of the source. Rule as the data show it: active = GI50 up to about 1.1 µM and inactive = higher.

Assays:
Experiment in all cases: growth of human tumour cells (NCI), 48 h
SN12C = test system: SN12C
RPMI-8226 = test system: RPMI-8226
SK-MEL-28 = test system: SK-MEL-28
SF-295 = test system: SF-295
NCI-H460 = test system: NCI-H460
HCC 2998 = test system: HCC 2998
HCT-15 = test system: HCT-15
NCI-H23 = test system: NCI-H23
HT-29 = test system: HT-29
SNB-19 = test system: SNB-19
HOP-62 = test system: HOP-62
NCI-H522 = test system: NCI-H522
MOLT-4 = test system: MOLT-4
M14 = test system: M14
OVCAR-4 = test system: OVCAR-4
COLO 205 = test system: COLO 205
NCI/ADR-RES = test system: NCI/ADR-RES
U-251 = test system: U-251
UACC-257 = test system: UACC-257
LOX IMVI = test system: LOX IMVI

Compound | GI50 (SN12C) | GI50 (RPMI-8226) | GI50 (SK-MEL-28) | GI50 (SF-295) | GI50 (NCI-H460) | GI50 (HCC 2998) | GI50 (HCT-15) | GI50 (NCI-H23) | GI50 (HT-29) | GI50 (SNB-19) | GI50 (HOP-62) | GI50 (NCI-H522) | GI50 (MOLT-4) | GI50 (M14) | GI50 (OVCAR-4) | GI50 (COLO 205) | GI50 (NCI/ADR-RES) | GI50 (U-251) | GI50 (UACC-257) | GI50 (LOX IMVI)
CC(=O)O[C@H]1CC[C@H]2[C@@H]3CC[C@H]4Nc5c(cnn5S(C)(=O)=O)C[C@]4(C)[C@H]3CC[C@]12C | > 100 µM (inactive) | > 100 µM (inactive) | 48.2 µM (inactive) | 46.8 µM (inactive) | 68.2 µM (inactive) | 56.4 µM (inactive) | > 100 µM | > 100 µM (inactive) | 48.5 µM (inactive) | 36.7 µM (inactive) | 27.6 µM (inactive) | 70 µM (inactive) | 47.9 µM (inactive) | 91.4 µM (inactive) | 18.5 µM (inactive) | > 100 µM (inactive) | 87.1 µM (inactive) | 53.1 µM (inactive) |  | 
COc1ccc2ccc3oc(=O)c(C)cc3c2c1 | > 100 µM (inactive) | > 100 µM (inactive) | > 100 µM (inactive) | > 100 µM (inactive) | > 100 µM (inactive) | 39.6 µM (inactive) |  | > 100 µM (inactive) | > 100 µM (inactive) | > 100 µM (inactive) | > 100 µM (inactive) | > 100 µM (inactive) | > 100 µM (inactive) | > 100 µM (inactive) | > 100 µM (inactive) | > 100 µM (inactive) | > 100 µM (inactive) | > 100 µM (inactive) | > 100 µM (inactive) | > 100 µM (inactive)
CC/C=C/C(CC)C/C(C)=C\[C@]1(CC)C[C@H](CC)[C@H](CC(=O)O)OO1 (stereo partly specified) | 1.59 µM (inactive) | < 0.01 µM (active) |  | 0.324 µM (active) | 0.171 µM (active) |  | 0.416 µM | 1.61 µM (inactive) | 0.499 µM (active) | 1.82 µM (inactive) | 0.885 µM (active) | 0.178 µM (active) | 0.151 µM (active) | 1.64 µM (inactive) |  | 1.32 µM (inactive) | 0.453 µM (active) | 0.491 µM (active) | 3.42 µM (inactive) | 0.0315 µM (active)
CC12CCC([C@H](Nc3cc(C(F)(F)F)cc(C(F)(F)F)c3)C1=O)C2(C)C (stereo partly specified) |  | 0.158 µM (active) | > 100 µM (inactive) | 37.4 µM (inactive) |  | > 100 µM (inactive) | > 100 µM | > 100 µM (inactive) | 84.3 µM (inactive) | > 100 µM (inactive) | 33.7 µM (inactive) |  | > 100 µM (inactive) | > 100 µM (inactive) | > 100 µM (inactive) | > 100 µM (inactive) | > 100 µM (inactive) |  | > 100 µM (inactive) | > 100 µM (inactive)
Cc1ccc2nc3c(C(=O)NCCN(C)C)cccc3cc2c1 | 1.76 µM (inactive) | 1.58 µM (inactive) | 2.51 µM (inactive) | 1.95 µM (inactive) | 0.438 µM (active) | 3.8 µM (inactive) | 0.834 µM | 1.84 µM (inactive) | 1.14 µM (inactive) | 2.04 µM (inactive) | 2.85 µM (inactive) |  | 0.49 µM (active) |  | 3.03 µM (inactive) | 1.02 µM (active) | 1.13 µM (inactive) | 3.26 µM (inactive) | 2.09 µM (inactive) | 1.71 µM (inactive)
O=C1CN2C(Cl)(Cl)C2(c2ccccc2)c2cc(Cl)ccc2N1CC(F)(F)F (stereo unspecified) | 16.9 µM (inactive) | 32.4 µM (inactive) | 22.6 µM (inactive) | 18.5 µM (inactive) | 16.1 µM (inactive) | 16.6 µM (inactive) | 25.8 µM | 26.2 µM (inactive) | 18.4 µM (inactive) |  | 22.6 µM (inactive) | 17.4 µM (inactive) | 19.1 µM (inactive) | 24 µM (inactive) | 18.5 µM (inactive) | 19.5 µM (inactive) |  | 18.8 µM (inactive) | 19.6 µM (inactive) | 17.5 µM (inactive)
[O-][S+]1c2ccccc2N=C(c2ccc3ccccc3c2)CC1c1ccccc1 (stereo unspecified) | 34.4 µM (inactive) | 29.6 µM (inactive) | 43 µM (inactive) | 19.9 µM (inactive) | 19.7 µM (inactive) | 21.9 µM (inactive) | 16.4 µM | 17.9 µM (inactive) | 17.4 µM (inactive) | 17.9 µM (inactive) | 29.3 µM (inactive) | 18.2 µM (inactive) | 31 µM (inactive) | 47.2 µM (inactive) | 20.2 µM (inactive) | 19.1 µM (inactive) |  | 18.6 µM (inactive) | 28.1 µM (inactive) | 21.1 µM (inactive)
COc1cc2c(cc1OC)C(=O)/C(=C/c1cc(OC)c(OC)c(OC)c1)C2 | > 100 µM (inactive) | > 100 µM (inactive) | > 100 µM (inactive) | > 100 µM (inactive) | > 100 µM (inactive) |  | > 100 µM | > 100 µM (inactive) | > 100 µM (inactive) | > 100 µM (inactive) | 43.6 µM (inactive) | 14.6 µM (inactive) | > 100 µM (inactive) | 96.6 µM (inactive) | > 100 µM (inactive) | > 100 µM (inactive) | 23.7 µM (inactive) | > 100 µM (inactive) |  | 
COC(=O)C(NC(=O)c1ccccc1)C(c1ccc(Cl)cc1)P(=O)(OC)OC (stereo unspecified) | > 100 µM (inactive) | > 100 µM (inactive) | > 100 µM (inactive) | 97.5 µM (inactive) | > 100 µM (inactive) | > 100 µM (inactive) | > 100 µM | 91.4 µM (inactive) | > 100 µM (inactive) | > 100 µM (inactive) | > 100 µM (inactive) | > 100 µM (inactive) | > 100 µM (inactive) | > 100 µM (inactive) | > 100 µM (inactive) | > 100 µM (inactive) |  | > 100 µM (inactive) | > 100 µM (inactive) | > 100 µM (inactive)
CN1C2CC(=O)CC1[C@H](O)[C@@H]2O | > 100 µM (inactive) | > 100 µM (inactive) | > 100 µM (inactive) | > 100 µM (inactive) | > 100 µM (inactive) | > 100 µM (inactive) | > 100 µM | > 100 µM (inactive) | > 100 µM (inactive) | > 100 µM (inactive) | > 100 µM (inactive) |  | > 100 µM (inactive) | > 100 µM (inactive) |  | > 100 µM (inactive) | > 100 µM (inactive) | > 100 µM (inactive) | > 100 µM (inactive) | > 100 µM (inactive)
COC(=O)C(Cc1cn(C(C)=O)c2ccccc12)P(=O)(OC)OC (stereo unspecified) | > 100 µM (inactive) | > 100 µM (inactive) | > 100 µM (inactive) | > 100 µM (inactive) | > 100 µM (inactive) | > 100 µM (inactive) | > 100 µM | > 100 µM (inactive) | > 100 µM (inactive) | > 100 µM (inactive) |  | > 100 µM (inactive) |  | > 100 µM (inactive) | > 100 µM (inactive) | > 100 µM (inactive) | > 100 µM (inactive) | > 100 µM (inactive) | > 100 µM (inactive) | 
